In publication PMC8952364, “Polyphenols as Inhibitors of Antibiotic Resistant Bacteria—Mechanisms Underlying Rutin Interference with Bacterial Virulence” (Pharmaceuticals, 2022):
Values after ≈ are worked out from the molar mass of the structure shown. Like-named read-outs stand apart in the source and are kept apart here.

Assays:
[1] = test system: Methicillin resistant S. aureus IBRS MRSA 011; assay: Antimicrobial microdilution assay (MIC/MBC); format: cell-based, Staphylococcus aureus; settings: Staphylococcus aureus, MRSA
Protocol: (§1) The bacterial suspension (0.5 Mc Farland) was prepared, and twenty-fold dilutions of these suspensions were mixed in a 1:10 ratio with the corresponding polyphenol dilution (0.0039–1 mg/mL). Microtiter plates were incubated at 37 °C for 24 h. The lowest concentrations without visible growth (under a binocular microscope) were defined as MICs. The bactericidal concentrations (MBCs) were determined by serial subcultivation of 2 μL of the well’s content and further incubation for 24 h at 37 °C. Streptomycin (SigmaAldrich, Darmstadt, Germany) was used as a positive control. The polyphenols were obtained from Extrasynthese, Rhone, France (rutin, isoquercitrin) and SigmaAldrich, Germany (hesperetin, hesperidin, naringenin, naringin, taxifolin, morin, chlorogenic acid, ferulic acid, p-coumaric acid, and gallic acid). The stock compounds were prepared in ethanol (30%), and adequate ethanol concentrations were used as the negative control in the assays. Experiments were done in triplicate.

P. aeruginosa IBRS P001 = assay: Antimicrobial microdilution assay (MIC/MBC); format: cell-based, Pseudomonas aeruginosa; settings: Pseudomonas aeruginosa, IBRSP001; for MIC: 37 °C, 24 h, read-out: MIC; for MBC: subcultivation, 24 h at 37 °C, read-out: MBC
Protocol: as §1

P. aeruginosa MMA83 = assay: Antimicrobial microdilution assay (MIC/MBC); format: cell-based, Pseudomonas aeruginosa; settings: for MIC: 37 °C, 24 h, read-out: MIC; for MBC: subcultivation, 24 h at 37 °C
Protocol: as §1

E. coli IBRS E003 = assay: Antimicrobial microdilution assay (MIC/MBC); format: cell-based, Escherichia coli; settings: Escherichia coli, IBRSE003; for MIC: 37 °C, 24 h, read-out: MIC; for MBC: subcultivation, 24 h at 37 °C, read-out: MBC
Protocol: as §1

E. coli IMD989 = assay: Antimicrobial microdilution assay (MIC/MBC); format: cell-based, Escherichia coli; settings: Escherichia coli, IMD989; for MIC: 37 °C, 24 h, read-out: MIC; for MBC: subcultivation, 24 h at 37 °C, read-out: MBC
Protocol: as §1

A. baumannii 6077/12 = assay: Antimicrobial microdilution assay (MIC/MBC); format: cell-based, Acinetobacter baumannii; settings: Acinetobacter baumannii, 6077/12; for MIC: 37 °C, 24 h, read-out: MIC; for MBC: subcultivation, 24 h at 37 °C, read-out: MBC
Protocol: as §1

A. baumannii S2/2 = assay: Antimicrobial microdilution assay (MIC/MBC); format: cell-based, Acinetobacter baumannii; settings: Acinetobacter baumannii, S2/2; for MIC: 37 °C, 24 h, read-out: MIC; for MBC: subcultivation, 24 h at 37 °C, read-out: MBC
Protocol: as §1

K. pneumoniae IT977 = assay: Antimicrobial microdilution assay (MIC/MBC); format: cell-based, Klebsiella pneumoniae; settings: Klebsiella pneumoniae, IT977; for MIC: 37 °C, 24 h, read-out: MIC; for MBC: subcultivation, 24 h at 37 °C, read-out: MBC
Protocol: as §1

K. pneumoniae Ni9 = assay: Antimicrobial microdilution assay (MIC/MBC); format: cell-based, Klebsiella pneumoniae; settings: Klebsiella pneumoniae, NI9; for MIC: 37 °C, 24 h, read-out: MIC; for MBC: subcultivation, 24 h at 37 °C, read-out: MBC
Protocol: as §1

A. xylosoxidans 37F = assay: Antimicrobial microdilution assay (MIC/MBC); format: cell-based, Achromobacter xylosoxidans; settings: Achromobacter xylosoxidans, 37F; for MIC: 37 °C, 24 h, read-out: MIC; for MBC: subcultivation, 24 h at 37 °C, read-out: MBC
Protocol: as §1

S. infantis 1371/1 = assay: Antimicrobial microdilution assay (MIC/MBC); format: cell-based, Salmonella Infantis; settings: Salmonella enterica, 1371/1; for MIC: 37 °C, 24 h, read-out: MIC; for MBC: subcultivation, 24 h at 37 °C, read-out: MBC
Protocol: as §1

[2] = test system: P. aeruginosa IBRS P001 biofilm; assay: Crystal violet antibiofilm assay (biofilm formation); format: cell-based, Pseudomonas aeruginosa; settings: MIC and sub-MIC, 24 h, crystal violet, Figure 1
Protocol: After incubation, each well was washed twice with sterile PBS (phosphate-buffered saline, pH 7.4) and fixed with methanol for 10 min. After removal of methanol the plate was air-dried. The biofilm was stained with 0.1% crystal violet (Bio-Merieux, Marcy l’Etoile, France) for 30 min. The plate was washed with water, air dried, and the stain was dissolved with 200 μL of 96% ethanol (Zorka, Sabac, Serbia). The absorbance was read at 620 nm on a Multiskan™ FC microplate photometer (Thermo Scientific™, Waltham, MA, USA). The results are presented as biofilm forming capacity (%) compared to control.

HaCaT cells = assay: Cytotoxicity in HaCaT cell line (crystal violet assay); format: cell-based, human; settings: HaCaT; for IC50: Homo sapiens, 24 h treatment, crystal violet, read-out: IC50 (compound concentration that inhibited 50% of the cell growth)
Protocol: For determination of the polyphenols’ cytotoxic effect, a crystal violet assay was used, with modifications. The cytotoxic effect of polyphenols was analyzed on spontaneously immortalized human skin keratinocytes (HaCaT, AddexBio No. T0020001, San Diego, CA, USA) cell lines. […] Cells (1 × 10^4 cells/well) were seeded in a 96-well plate (Sarstedt, Nümbrecht, Germany) 24 h before treatment. […] Cells were incubated with the compounds for 24 h. […] After crystal violet was removed, the plates were washed in a stream of tap water and left to air-dry at room temperature for 24 h. The absorbance was measured in a microplate reader (Multiskan™ FC Microplate Photometer, Thermo Scientific™) at 590 nm. The results were expressed as IC50 value in μg/mL. The criterion used to categorize the cytotoxic activity polyphenols was as follows: […] All analyses were performed in triplicate; each replicate was also quantified three times. Data were expressed as mean standard deviation, where applicable.

P. aeruginosa MTCC 2488 = test system: P. aeruginosa MTCC 2488; parameters: method as in PMID 32057619; settings: cited from earlier work
[3] = test system: E. coli (fluoroquinolones and ampicillin-resistant); parameters: method as in A previous investigation; settings: ref A previous investigation; cited from earlier work
[4] = subcultivation, 24 h at 37 °C, read-out: MBC
[5] = Pseudomonas aeruginosa, MMA83, read-out: MBC

Row | SMILES | MIC (P. aeruginosa IBRS P001) [µg/mL] | MBC (P. aeruginosa IBRS P001) [µg/mL] | MIC (P. aeruginosa MMA83; Pseudomonas aeruginosa, MMA83) [µg/mL] | MBC (P. aeruginosa MMA83; [5]) [µg/mL] | MIC (E. coli IBRS E003) [µg/mL] | MBC (E. coli IBRS E003) [µg/mL] | MIC (E. coli IMD989) [µg/mL] | MBC (E. coli IMD989) [µg/mL] | MIC (A. baumannii 6077/12) [µg/mL] | MBC (A. baumannii 6077/12) [µg/mL] | MIC (A. baumannii S2/2) [µg/mL] | MBC (A. baumannii S2/2) [µg/mL] | MIC (K. pneumoniae IT977) [µg/mL] | MBC (K. pneumoniae IT977) [µg/mL] | MIC (K. pneumoniae Ni9) [µg/mL] | MBC (K. pneumoniae Ni9) [µg/mL] | MIC (A. xylosoxidans 37F) [µg/mL] | MBC (A. xylosoxidans 37F) [µg/mL] | MIC (S. infantis 1371/1) [µg/mL] | MBC (S. infantis 1371/1) [µg/mL] | also measured
1 | C[C@@H]1O[C@@H](O[C@H]2[C@H](Oc3cc(O)c4c(c3)O[C@H](c3ccc(O)cc3)CC4=O)O[C@H](CO)[C@@H](O)[C@@H]2O)[C@H](O)[C@H](O)[C@H]1O [Naringin, naringin] | 250 (≈ 431 µM) | 500 (≈ 861 µM) | > 1000 | > 1000 | > 1000 | > 1000 | > 1000 | > 1000 | > 1000 | > 1000 | > 1000 | > 1000 | > 1000 | > 1000 | > 1000 | > 1000 | > 1000 | > 1000 | > 1000 | > 1000 | MIC ([1]; 37 °C, 24 h, read-out: MIC): 500 µg/mL (≈ 861 µM); MBC [1, 4]: 1000 µg/mL (≈ 1720 µM); MBC (P. aeruginosa MMA83): >1000 µg/mL; reduction of biofilm formation (biomass), in words [2]: not significantly altered; IC50 (HaCaT cells): > 1000 µg/mL; Bactericidal concentration (P. aeruginosa MTCC 2488): 1.4 mg/mL; IC50 (P. aeruginosa MTCC 2488): 570 µg/mL (≈ 982 µM)
2 | [H]/N=C(/N)N[C@H]1[C@H](O)[C@@H](O)[C@H](O[C@@H]2O[C@@H](C)[C@](O)(C=O)[C@H]2O[C@@H]2O[C@@H](CO)[C@H](O)[C@@H](O)[C@@H]2NC)[C@@H](N/C(N)=N\[H])[C@@H]1O [Streptomycin, reference compound] | 50 (≈ 86 µM) | 100 (≈ 172 µM) | > 1000 | > 1000 | 100 (≈ 172 µM) | 200 (≈ 344 µM) | 1000 (≈ 1720 µM) | > 1000 | > 1000 | > 1000 | > 1000 | > 1000 | > 1000 | > 1000 | > 1000 | > 1000 | > 1000 | > 1000 | > 1000 | > 1000 | MBC ([1]; 24 h): 800 µg/mL (≈ 1380 µM); MIC ([1]; 24 h): 100 µg/mL (≈ 172 µM)
3 | O=C(O)/C=C/c1ccc(O)cc1 [p-Coumaric Acid, p-coumaric acid] | 500 (≈ 3050 µM) | 1000 (≈ 6090 µM) | 500 (≈ 3050 µM) | 1000 (≈ 6090 µM) | > 1000 | > 1000 | 1000 (≈ 6090 µM) | 1000 (≈ 6090 µM) | 500 (≈ 3050 µM) | 500 (≈ 3050 µM) | 500 (≈ 3050 µM) | 500 (≈ 3050 µM) | 1000 (≈ 6090 µM) | 1000 (≈ 6090 µM) | 1000 (≈ 6090 µM) | 1000 (≈ 6090 µM) | 1000 (≈ 6090 µM) | 1000 (≈ 6090 µM) | 1000 (≈ 6090 µM) | 1000 (≈ 6090 µM) | MIC ([1]; 37 °C, 24 h, read-out: MIC): 500 µg/mL (≈ 3050 µM); MBC [1, 4]: 1000 µg/mL (≈ 6090 µM); cytotoxicity category (HaCaT cells; maximal tested concentrations (1 mg/mL)): no cytotoxicity (IC50 > 501 µg/mL = no cytotoxicity); IC50 (HaCaT cells): > 1000 µg/mL; MIC [3]: 1000 µg/mL (≈ 6090 µM)
